Values joined by “and” are separate entries in the source; they are usually repeats but may differ in a detail not shown here. Equal entries are not always repeated. Inconclusive results and toxic doses are left out. Cut-off read from the data, not from the text of the source: active = T/C of 150% or more; inactive = T/C below 125%.
Test system: L1210 leukemia ip in BDF1 mice, survival T/C
Assay: NCI In Vivo Anticancer Drug Screen. Data for tumor model L1210 Leukemia (intraperitoneal) in B6D2F1 (BDF1) mice
Details: endpoint: mean survival time, higher = longer survival
Outline: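 Survival endpoint. Drug-treated group vs vehicle group, expressed as T divided by C. Tumor passaged by transplantation.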

[1] = dose: 200.0 mg/kg/injection, schedule: Q01DX001 (ip), vehicle: Klucel (hydroxypropylcellulose) (HPC)
[2] = dose: 100.0 mg/kg/injection, schedule: Q01DX009 (ip), vehicle: Klucel (hydroxypropylcellulose) (HPC)
[3] = dose: 200.0 mg/kg/injection, schedule: Q01DX009 (ip), vehicle: Klucel (hydroxypropylcellulose) (HPC)
[4] = dose: 400.0 mg/kg/injection, schedule: Q01DX009 (ip), vehicle: Klucel (hydroxypropylcellulose) (HPC)
[5] = dose: 100.0 mg/kg/injection, schedule: Q01DX001 (ip), vehicle: Klucel (hydroxypropylcellulose) (HPC)
[6] = dose: 400.0 mg/kg/injection, schedule: Q01DX001 (ip), vehicle: Klucel (hydroxypropylcellulose) (HPC)
[7] = dose: 100.0 mg/kg/injection, schedule: Q01DX001 (ip), vehicle: saline
[8] = dose: 200.0 mg/kg/injection, schedule: Q01DX001 (ip), vehicle: saline
[9] = dose: 400.0 mg/kg/injection, schedule: Q01DX001 (ip), vehicle: saline
[10] = dose: 100.0 mg/kg/injection, schedule: Q01DX009 (ip), vehicle: saline with Tween-80
[11] = dose: 200.0 mg/kg/injection, schedule: Q01DX009 (ip), vehicle: saline with Tween-80
[12] = dose: 400.0 mg/kg/injection, schedule: Q01DX009 (ip), vehicle: saline with Tween-80
[13] = dose: 50.0 mg/kg/injection, schedule: Q01DX001 (ip), vehicle: saline
[14] = dose: 100.0 mg/kg/injection, schedule: Q01DX001 (ip), vehicle: other
[15] = dose: 200.0 mg/kg/injection, schedule: Q01DX001 (ip), vehicle: other
[16] = dose: 400.0 mg/kg/injection, schedule: Q01DX001 (ip), vehicle: other
[17] = dose: 100.0 mg/kg/injection, schedule: Q04DX003 (ip), vehicle: Klucel (hydroxypropylcellulose) (HPC)
[18] = dose: 200.0 mg/kg/injection, schedule: Q04DX003 (ip), vehicle: Klucel (hydroxypropylcellulose) (HPC)
[19] = dose: 400.0 mg/kg/injection, schedule: Q04DX003 (ip), vehicle: Klucel (hydroxypropylcellulose) (HPC)
[20] = dose: 100.0 mg/kg/injection, schedule: Q01DX001 (ip), vehicle: carboxymethylcellulose (CMC)
[21] = dose: 200.0 mg/kg/injection, schedule: Q01DX001 (ip), vehicle: carboxymethylcellulose (CMC)
[22] = dose: 400.0 mg/kg/injection, schedule: Q01DX001 (ip), vehicle: carboxymethylcellulose (CMC)

Measured: T/C

Oc1ccccc1OCCOCCOc1ccccc1O
inactive: dose: 100.0 mg/kg/injection, schedule: Q04DX002 (ip), vehicle: other 90 % of control

Cc1nc(N)[nH]c(=O)c1CCCNC(=O)c1ccc(C(=O)CBr)cc1
inactive: dose: 50.0 mg/kg/injection, schedule: Q01DX001 (ip), vehicle: Klucel (hydroxypropylcellulose) (HPC) 90 % of control | [1] 93 % of control

COc1ccc(C=O)cc1OC
inactive: [2] 101 % of control | [3] 102 % of control | [4] 96 % of control

O=C(C(O[N+](=O)[O-])c1ccccc1)C(O[N+](=O)[O-])c1ccccc1 (stereo not given)
inactive: [5] 95 % of control | [1] 95 % of control | [6] 93 % of control

CC(=O)OCCN1CCN(CC/C=C2\c3ccccc3Sc3ccc(Cl)cc32)CC1
inactive: dose: 2.0 mg/kg/injection, schedule: Q01DX009 (ip), vehicle: saline 100 % of control | dose: 5.0 mg/kg/injection, schedule: Q01DX009 (ip), vehicle: saline 98 % of control and 115 % of control | dose: 10.0 mg/kg/injection, schedule: Q01DX009 (ip), vehicle: saline 102 % of control | dose: 20.0 mg/kg/injection, schedule: Q01DX009 (ip), vehicle: saline 111 % of control | dose: 25.0 mg/kg/injection, schedule: Q04DX003 (ip), vehicle: saline 120 % of control | dose: 40.0 mg/kg/injection, schedule: Q01DX009 (ip), vehicle: saline 117 % of control | [7] 108 % of control | [8] 114 % of control

CCC(C1=NC(C)(C)CO1)c1ccccc1Br (stereo not given)
inactive: dose: 100.0 mg/kg/injection, schedule: Q04DX003 (ip), vehicle: saline 97 % of control | dose: 200.0 mg/kg/injection, schedule: Q04DX003 (ip), vehicle: saline 98 % of control | dose: 400.0 mg/kg/injection, schedule: Q04DX003 (ip), vehicle: saline 88 % of control

CC(=O)Nc1ccc(C(=O)N=C(C2CCCC2)N2CCCC2)cc1
inactive: [7] 96 % of control | [8] 100 % of control | [9] 105 % of control

BrC1CCCCN1Cc1cc2ccccc2cc1CN1CCCCC1Br (stereo not given)
inactive: dose: 9.38 mg/kg/injection, schedule: Q01DX001 (ip), vehicle: other 100 % of control | dose: 18.75 mg/kg/injection, schedule: Q01DX001 (ip), vehicle: other 102 % of control

CCOC1=C(C#N)CC2(CC1)c1ccccc1-c1ccccc12
inactive: [2] 96 % of control | [3] 95 % of control | [4] 95 % of control

CCc1ccc(NC(=S)NC(=O)/C=C/c2ccccc2)cc1
inactive: dose: 100.0 mg/kg/injection, schedule: Q01DX001 (ip), vehicle: saline with Tween-80 92 % of control | [10] 99 % of control and 102 % of control | dose: 100.0 mg/kg/injection, schedule: Q04DX002 (ip), vehicle: alcohol 114 % of control | dose: 100.0 mg/kg/injection, schedule: Q04DX003 (ip), vehicle: saline with Tween-80 92 % of control | dose: 200.0 mg/kg/injection, schedule: Q01DX001 (ip), vehicle: saline with Tween-80 87 % of control | [11] 92 % of control and 96 % of control | dose: 200.0 mg/kg/injection, schedule: Q04DX002 (ip), vehicle: alcohol 90 % of control | dose: 400.0 mg/kg/injection, schedule: Q01DX001 (ip), vehicle: saline with Tween-80 89 % of control | [12] 96 % of control and 105 % of control | dose: 400.0 mg/kg/injection, schedule: Q04DX002 (ip), vehicle: alcohol 97 % of control | dose: 400.0 mg/kg/injection, schedule: Q04DX003 (ip), vehicle: saline with Tween-80 87 % of control

O=[N+]([O-])c1cc(Br)c(N=Nc2ccc(O)cc2)c(Br)c1
inactive: [13] 92 % of control | [7] 114 % of control | [8] 97 % of control | [9] 92 % of control

OC12CCCCC1Oc1ccc3ccccc3c12 (stereo not given)
inactive: [7] 103 % of control | [8] 113 % of control | [9] 100 % of control

C/C(=N\N=C(/C)c1cccc([N+](=O)[O-])c1)c1cccc([N+](=O)[O-])c1
inactive: [14] 100 % of control | [15] 100 % of control | [16] 97 % of control

CC(=O)Nc1ccc(NCN2C(=O)c3ccccc3C2=O)cc1
inactive: [17] 100 % of control | [18] 97 % of control | [19] 97 % of control

NC(=O)Nc1ccccc1O
inactive: dose: 75.0 mg/kg/injection, schedule: Q04DX002 (ip), vehicle: saline with Tween-80 102 % of control | dose: 150.0 mg/kg/injection, schedule: Q04DX002 (ip), vehicle: saline with Tween-80 87 % of control | dose: 300.0 mg/kg/injection, schedule: Q04DX002 (ip), vehicle: saline with Tween-80 97 % of control

FC(F)(F)c1cccc(-c2nc3nc(Cl)c(Cl)nc3[nH]2)c1
inactive: dose: 12.5 mg/kg/injection, schedule: Q01DX009 (ip), vehicle: saline with Tween-80 93 % of control | dose: 25.0 mg/kg/injection, schedule: Q01DX009 (ip), vehicle: saline with Tween-80 98 % of control | dose: 50.0 mg/kg/injection, schedule: Q01DX009 (ip), vehicle: saline with Tween-80 90 % of control

O=Nn1cc(-c2cc3ccccc3n2N=O)c2ccccc21
inactive: [13] 102 % of control | [7] 93 % of control | [8] 96 % of control | [9] 96 % of control

CCCCCCCCCCCCN (tested in a mixture with another compound)
inactive: dose: 87.5 mg/kg/injection, schedule: Q01DX001 (ip), vehicle: Klucel (hydroxypropylcellulose) (HPC) 93 % of control

CCOC(=O)c1nc2c(C)nc(N(C)C)nc2n(C)c1=O
inactive: [5] 100 % of control | [1] 97 % of control | [6] 94 % of control

COc1ccccc1N(C(C)=O)C1=C(Cl)C(=O)c2ccccc2C1=O
inactive: dose: 10.0 mg/kg/injection, schedule: Q01DX001 (ip), vehicle: saline 97 % of control | dose: 20.0 mg/kg/injection, schedule: Q01DX001 (ip), vehicle: saline 97 % of control

O=C1c2ccccc2-c2cccc(Cl)c21
inactive: [20] 101 % of control | [21] 93 % of control | [22] 104 % of control

CC1(C)COC(c2ccccc2)=N1
inactive: [10] 105 % of control | dose: 100.0 mg/kg/injection, schedule: Q04DX003 (ip), vehicle: saline sonified 93 % of control | [11] 103 % of control | dose: 200.0 mg/kg/injection, schedule: Q04DX003 (ip), vehicle: saline sonified 87 % of control | [12] 102 % of control | dose: 400.0 mg/kg/injection, schedule: Q04DX003 (ip), vehicle: saline sonified 90 % of control

S=C(N/N=C/c1ccncc1)Nc1ccccc1
inactive: [5] 96 % of control | [2] 97 % of control and 100 % of control | dose: 100.0 mg/kg/injection, schedule: Q04DX002 (ip), vehicle: Klucel (hydroxypropylcellulose) (HPC) 102 % of control and 91 % of control | [17] 103 % of control | [1] 100 % of control | [3] 108 % of control | dose: 200.0 mg/kg/injection, schedule: Q04DX002 (ip), vehicle: Klucel (hydroxypropylcellulose) (HPC) 98 % of control and 102 % of control | [18] 106 % of control | [6] 98 % of control | [4] 94 % of control and 104 % of control | dose: 400.0 mg/kg/injection, schedule: Q04DX002 (ip), vehicle: Klucel (hydroxypropylcellulose) (HPC) 97 % of control and 98 % of control | [19] 94 % of control

CCCCCCCCCCCCCCCCCC(=O)N1C(=O)c2ccccc2C1=O
inactive: [14] 87 % of control | [15] 88 % of control | [16] 92 % of control

CCOC(=O)n1cnc2ncnc(SC)c21
inactive: dose: 25.0 mg/kg/injection, schedule: Q01DX015 (ip), vehicle: saline 102 % of control | dose: 50.0 mg/kg/injection, schedule: Q01DX001 (ip), vehicle: carboxymethylcellulose (CMC) 94 % of control and 106 % of control | dose: 50.0 mg/kg/injection, schedule: Q01DX015 (ip), vehicle: saline 96 % of control | [20] 109 % of control and 114 % of control | dose: 100.0 mg/kg/injection, schedule: Q01DX015 (ip), vehicle: saline 103 % of control | [21] 88 % of control | dose: 200.0 mg/kg/injection, schedule: Q01DX015 (ip), vehicle: saline 91 % of control | [22] 109 % of control

— PubChem BioAssay AID248 (DTP/NCI, 2004)
